These results are taken from patent US20060287383A1, “Substance exhibiting antidepressant property” (priority 2003, published 2006).

In test [1] the test system is white outbred male rats. Kind of test: reserpine depression method according to Bernardi. The conditions noted are these: reserpine 2.5 mg/kg intraperitoneally alone. Format: in vivo. The text has this:
The method of reserpine depression according to Bernardi (Bernardi D., Paglialunga S., Jori A. Peripheral and central components in the hyperthermic effect of desipramine in rezerpinized rats//J. Pharm. Pharmacol., 1968, vol. 20, p. 204-209) is one of the basic models for assessing antidepressants in studies of new pharmaceuticals. The studies have been conducted with white outbred male rats having the weight from 200 to 240 grams. Reserpine has been introduced intraperitoneally, as a single dose of 2.5 mg/kg 2 hours before the introduction of phenotropyl (intraperitoneally, single doses of 25, 50, 100 and 200 mg/kg) and 3 hours before starting the study. The animals from the control group have received intraperitoneally distilled water only in the same volumes as the animals from the experimental groups. The antidepressant activity of phenotropyl has been assessed by its effect on sedation (suppression of the orientation and motion activity), intensity of ptosis and diarrhea, which have been caused by reserpine in the rats.
The orientation and motion activity of the animals has been studied for three minutes in a special activity meter (Varimex). The intensity of ptosis and diarrhea has been assessed on the standard 4-point scale (Mashkovsky M. D., Andreeva N. I., Polezhaeva A. I. Pharmacology of Antidepressants. Moscow, Medicine Publishers, 1983, p. 194-199).

Test [2] relates to white outbred male mice. Kind of test: haloperidol catalepsy method. Format: in vivo. The conditions noted are these: haloperidol 0.5 mg/kg intraperitoneally alone. As for the experimental part: As one of the indicators for antidepressant antagonism in relation to depriming effects of neuroleptics, neuroleptic-induced catalepsy is used. The maintenance of catalepsy in animals is assessed by their ability to maintain set or unusual poses for a definite time (Morpurgo C. Effects of antiparkinson drugs on phenothiazine induced catatonia reaction//Arch. Int Pharmacodyn., 1962, vol. 137 No 1-2, p. 84-94). Reduction or prevention of catalepsy is one of the factors showing antidepressant activity in studied substances.
The studies have been conducted with white outbred male mice having the weight from 18 to 24 grams. Haloperidol is introduced intraperitoneally in a single dose of 0.5 mg/kg. Phenotropyl has been introduced intraperitoneally in doses of 50, 100 and 200 mg/kg in 15 minutes after the introduction of haloperidol. The catalepsy intensity has been assessed by time (in seconds) of keeping the animals in an uncomfortable pose where their front legs have been put onto a bar having the height of 4 cm, in 60, 120 and 180 minutes after introducing the said medications. It is shown in Table 4 that phenotropyl clearly antagonizes haloperidol-induced catalepsy.

In test [3] the test system is white outbred male rats. Kind of test: Porsolt method of behavioral despair (helplessness). The format is in vivo. An excerpt:
The Porsolt method of behavioral despair (helplessness) (Porsolt R. D., Anton G., Blavet N. et al. Behavioral despair in rats: a new model sensitive to antidepressant treatment//Europ. J. Pharmacol. 1978—v. 47.—p. 379-391) is the basic model for assessing antidepressants (Andreeva N. I., ? H. ? . the Methodical Guidelines for Studying Antidepressant Activity of Pharmaceuticals,//Guidebook for Experimental (Preclinical) Studies of New Pharmaceuticals of the RF Ministry of Public Health.—ZAO IIA “Remedium”.—2000.—p. 121-125). The studies have been conducted on white outbred male rats having the weight of 230-250 grams. The animals have been put into a water reservoir having 40 cm in diameter and the depth of 60 cm, for the rats cannot either run out of the reservoir or find a support in it. The water temperature has been maintained at the level of 25° C., the experiments have been conducted within the period from 12 A.M. to 4 P.M. After coming into water the animals begin displaying energetic motion activity aimed at finding a way out of the aversive (troublesome) situation, but then they stop their attempts and take a typical position in the water, while being fully immovable or making insignificant motions necessary for keeping their heads over the water surface. The depressive condition intensity rate in this test is the duration of immobility. The immobility condition has been assessed visually, determining its duration within 10 minutes of the observations. Substances having antidepressant activity alleviate this condition by reducing the immobility time.
The studies have been conducted using animals divided into groups. The animals from the experimental groups have received single doses of phenotropyl in the amounts of 25, 50 and 100 mg/kg or the standard amitriptyline medication in the amount of 10 mg/kg (ampoule solution made by Spofa, the Czech Republic) in the volume corresponding to the dose. The animals from the control group have received distilled water in the same dosage. All the substances have been given intragastrically 40 minutes before the an experiment.

In test [4] the test system is white outbred male rats. Kind of test: involuntary swimming in a reservoir with freely moving wheels according to Nomura. The format is in vivo. As for the experimental part: The method of involuntary swimming in a reservoir with freely moving wheels (Nomura S., Shimizu J., Kinjo M. et al. A new behavioral test for antidepressant drugs//Eur. J. Pharmacol.—1982.—v. 83.—N 34.—p. 171-175) is widely used for assessing the action of antidepressant agents. The installation is a reservoir having dimensions of 64×30×42 cm and divided into four equal sections where wheels are located. The reservoir is filled with water at the temperature of 25° C., coming to the medium line of the wheels. The studies have been conducted with white outbred male rats having the weight from 230 to 250 grams. The rats have been put into each section in the position where their heads are opposite to the wheels, and then the wheel speed has been recorded for 10 minutes with the use of electromechanical counters. The number of wheel revolutions made by the rat for 10 minutes is recorded.
This study has been conducted with animals from different groups. The rats from the experimental groups have received single doses of phenotropyl in the amounts of 25, 50 and 100 mg/kg or the standard amitriptyline medication in the amount of 10 mg/kg (ampoule solution made by Spofa, the Czech Republic) in the volume corresponding to the dosage. The animals from the control group have received distilled water in the same dosage. All the substances have been given intragastrically 40 minutes before the an experiment.

Test [5] has as its system patients having depressive illnesses. Kind of test: clinical study, Hamilton rating scale for depressive illness. The conditions noted are these: 75 mg daily. The format is in vivo, human. As for the experimental part: The Hamilton rating scale for primary depressive illness (Hamilton M. Development of a rating scale for primary depressive illness//Br J Soc Clin Psychol. 1967 December;6(4):278-96) is one of the most widely used scales for assessing depression in the clinical practice.
The material for clinical studies has comprised two homogenous groups of patients having depressive illnesses (40 persons) aged 20-42, out of which 20 patients have taken amitriptyline in the daily dose of 75 mg (25 mg three times a day), and 20 patients have taken phenotropyl in the daily dose of 100 mg as a single dose in the morning time. For a comparative study of the medications antidepressant activity the patients have been enlisted for the study according to the following criteria: the informed consent is available, a light or moderate depressive episode (F32.0 ? F32.1 according to MCB-10) is present, the total score under the Hamilton rating scale is not lower than 18, no contraindications to taking amitriptyline and phenotropyl. The patients have been relatively uniformly assigned to the said groups according to meaningful factors, such as sex and age, time for which the condition exists and syndrome characteristics. The condition existence time varied from 1 to 2 years. The therapy efficiency has been assessed on the basis of a degree of reduction of the total score under the Hamilton scale, namely: full effect—reduction by more than 50%; partial reduction—from 25 to 50%; no effect—reduction by less than 25%. The condition of the patients has been assessed during the background studies and at each 7th day of the therapy for the whole 6 weeks of the therapy. In total, seven examinations have been carried out. The comparative data on the general efficiency pf the medications, as given in Table 5, evidence a rather quick reduction of the depressive illness psychopathological symptoms in the process of administering phenotropyl and amitriptyline. However, the antidepressant effect of phenotropyl has been more pronounced on the 7th and 14th days of the therapy. The full reduction has been attained in 25% and 40% of the patients, respectively. […] From the 28th day of the therapy the number of the patients experiencing the maximum effect has not been changed either on the 35th or the 42nd days of the therapy. Out of 20% of the patients experiencing a partial reduction of the depressive symptoms, 15% have been patients with the reduction from 25% to 50%, and 5%—patients with the reduction by less than 25%.

Structures are written as SMILES. Structures can show the parent of a compound that is named as a salt.

Consider `COC(=O)[C@H]1[C@H]2C[C@@H]3c4[nH]c5cc(OC)ccc5c4CCN3C[C@H]2C[C@@H](OC(=O)c2cc(OC)c(OC)c(OC)c2)[C@@H]1OC` [Reserpine, reference compound], for which the Diarrhea in test [1] (4-point scale) came to 2.4 ± 0.1 points. The compound further registered a Ptosis in test [1] (3 hours before study, 4-point scale) of 3.6 ± 0.2 points. For the same compound, the “Number of pulses in activity meter” value in test [1] (three minutes, Varimex) was 11.8 ± 2.2.
Regarding `O=C(CCCN1CCC(O)(c2ccc(Cl)cc2)CC1)c1ccc(F)cc1` [Haloperidol, reference compound], the figures for the “Catalepsy” value in test [2] (60 minutes), in test [2] (120 minutes) and in test [2] (180 minutes) were 1.3 ± 0.8 s, 27.5 ± 8.5 s and 63.4 ± 2.8 s, respectively.
`CN(C)CCC=C1c2ccccc2CCc2ccccc21` [Amitriptyline, 5-(3-dimethylaminopropylidene)-10,11-dihydrodibenzocycloheptine hydrochloride, reference compound]: in test [3] (10 mg/kg intragastrically), the “effect on immobility time” value is recorded as “reliably reduced the immobility time”. The compound also gave a Time of immobility in test [3] (single dose 10 mg/kg intragastrically 40 minutes before, 10 minutes observation) of 166.1 ± 46.5 s. Also, the “effect on number of wheel revolutions” value in test [4] (10 mg/kg intragastrically) is on record as “reliably increasing the number of wheel revolutions”. Also, in test [4] (single dose 10 mg/kg intragastrically 40 minutes before), the “Number of wheel revolutions for 10 minutes” value is recorded as 115.1 ± 24.6. Moreover, in test [5] (7th therapy day), the “patients (%) with reduction of total Hamilton score 25-49” value was 20%, the “patients (%) with reduction of total Hamilton score <25” value is listed as 80%, the “patients (%) with reduction of total Hamilton score ≧50” value amounted to 0% and the “patients (n) with reduction of total Hamilton score 25-49” value was determined as 4. In test [5] (7th therapy day), the “patients (n) with reduction of total Hamilton score <25” value is recorded as 16 and the “patients (n) with reduction of total Hamilton score ≧50” value is on record as 0. In test [5] (14th therapy day), the “patients (%) with reduction of total Hamilton score 25-49” value is on record as 30%, the “patients (%) with reduction of total Hamilton score <25” value was 50%, the “patients (%) with reduction of total Hamilton score ≧50” value is recorded as 20% and the “patients (n) with reduction of total Hamilton score 25-49” value is 6. Moreover, in test [5] (14th therapy day), the “patients (n) with reduction of total Hamilton score <25” value worked out at 10 and the “patients (n) with reduction of total Hamilton score ≧50” value came to 4. In test [5] (21st therapy day), the “patients (%) with reduction of total Hamilton score 25-49” value was 30%, the “patients (%) with reduction of total Hamilton score <25” value turned out to be 30%, the “patients (%) with reduction of total Hamilton score ≧50” value came to 40% and the “patients (n) with reduction of total Hamilton score 25-49” value was determined as 6. For the same compound, in test [5] (21st therapy day), the “patients (n) with reduction of total Hamilton score <25” value is 6 and the “patients (n) with reduction of total Hamilton score ≧50” value came out at 8. Also, in test [5] (28th therapy day), the “patients (%) with reduction of total Hamilton score 25-49” value turned out to be 10%, the “patients (%) with reduction of total Hamilton score <25” value is reported as 20%, the “patients (%) with reduction of total Hamilton score ≧50” value amounted to 70% and the “patients (n) with reduction of total Hamilton score 25-49” value stood at 2. Moreover, in test [5] (28th therapy day), the “patients (n) with reduction of total Hamilton score <25” value was determined as 4 and the “patients (n) with reduction of total Hamilton score ≧50” value amounted to 14. Moreover, in test [5] (35th therapy day), the “patients (%) with reduction of total Hamilton score 25-49” value stood at 5%, the “patients (%) with reduction of total Hamilton score <25” value is 10%, the “patients (%) with reduction of total Hamilton score ≧50” value was 85% and the “patients (n) with reduction of total Hamilton score 25-49” value was found to be 1. In test [5] (35th therapy day), the “patients (n) with reduction of total Hamilton score <25” value was 2 and the “patients (n) with reduction of total Hamilton score ≧50” value is given as 17. Besides, in test [5] (42nd therapy day), the “patients (%) with reduction of total Hamilton score 25-49” value turned out to be 5%, the “patients (%) with reduction of total Hamilton score <25” value came out at 10%, the “patients (%) with reduction of total Hamilton score ≧50” value worked out at 85% and the “patients (n) with reduction of total Hamilton score 25-49” value came out at 1. For the same compound, in test [5] (42nd therapy day), the “patients (n) with reduction of total Hamilton score <25” value is 2 and the “patients (n) with reduction of total Hamilton score ≧50” value is reported as 17.
